Data from patent publication US20080187492A1, “Drosophila Models For Diseases Affecting Learning and Memory” (priority 2004, published 2008).

Experiments:
Rescue flies = assay: Short-term memory (60 mins) with mated female targets, Rescue flies; format: in vivo, Drosophila melanogaster; conditions: for short-term memory, mated female target: 86 μM MPEP, 400 nM LY341495, 573 μM MPPG, 348 μM MTPG; for memory at 60 minutes post training, mated female target: 5 day old, 8.6 mM MPEP, 400 nM LY341495
Protocol: Effects of drug treatment on short-term memory (60 mins) in flies lacking dfmr1 activity with mated female targets. Short-term (60 min.) memory was measured in Rescue and FS flies that were either fed control food or underwent various drug treatments as described below. Short-term memory was measured by placing a trained male in a holding chamber for 60 minutes (after being trained for one hour with a previously mated female), then subsequently placing him in a testing chamber with a mated female target for a ten-minute courtship interval (C.I.). This C.I. was compared to the C.I. obtained for naïve courtship of a previously mated female, i.e., C.I. during the first 10 minutes of the training session with a previously mated female. Additionally, for reference the C.I. during the last 10 minutes of the training period was also determined. Numbers of flies are indicated above each bar for all groups. The levels of significance are indicated as follows; *=p<0.05; **=p<0.005; ***=p<0.0001.
Restoration of short-term memory with mGluR antagonists. To establish that the failure to observe memory was not due to a problem with recognizing or processing the appropriate cues from the virgin female target, we used a modified version of the conditioned courtship paradigm where the male is paired with a mated female target subsequent to training (Kane et al., 1997; Joiner and Griffith, 1997; Joiner and Griffith, 1999; Kamashev et al., 1999). Again, with pharmacologic treatment it is necessary to utilize more then one compound to confirm the specificity of the target, so in this case we used four mGluR antagonists. […] It is also important to note that the robust deficit in synaptic plasticity in FS flies, with regard to memory, is a critical extension of the previous models of Fragile X syndrome in model organisms, since this is one of the most prominent aspects of the human disorder. Furthermore, we have shown that antagonism of the mGluRs can restore synaptic plasticity in the Drosophila model of Fragile X syndrome.

FS mutant flies = assay: Fusion of mushroom body β-lobes (anti-FasII staining), FS mutant flies; format: in vivo, Drosophila melanogaster
Protocol: Histological analysis was performed on relevant experimental flies, showing the fusion of MB beta lobes and the rescue of these fusions with in mGluR antagonists (FIG. 18). Brains from (0-1 day old) dfmr1 mutant adult flies were stained with anti-fasciclin II (ID4) and a rhodamine-coupled secondary antibody. The α, β, & γ lobes of the MBs are clearly labeled with this antibody and appear normal in this mutant brain (Panel A). Panels B-E show a higher magnification of the β-lobes at the midline. […] Panels C-E show mutants brains displaying a C) “mild” (arrowhead), D) “moderate” and E) “severe” level of midline crossing by the […]. […] WT rescue flies are dfmr1 mutants containing one copy of the dfmr1 genomic rescue fragment. The number of brains examined are listed below each group.
Rescue of β-lobe fusions with mGluR antagonists. Previously it has been established that the mushroom bodies are involved in learning and memory in the conditioned courtship and the odor shock classical conditioning paradigms in Drosophila (deBelle and Heisenberg, 1994; Joiner and Griffith, 1999; McBride et al, 1999; Zars et al, 2000; Paschel and Preat, 2001). […] When labeled with anti-FasII, we observed a range of β-lobe fusion defects in brains derived from 0-2 day old FS mutant flies, but not Rescue flies (FIG. 18).
Since treatment of FS mutant flies with mGluR antagonists rescued the memory defects observed in these flies, we examined the effect of these treatments on the β-lobe fusion defect to determine if the rescue of the two phenotypes was correlated. We raised FS mutant flies in food containing 8.6 mM MPEP, 400 nM LY341495 or 350 mM MTPG, then examined the morphology of the MBs in 0-2 day old adults. […] For example, mild fusion defects were only observed in 18% of FS mutant brains raised in food containing 400 nM LY341495 (FIG. 18F). No effect was observed when these drugs were fed to Rescue flies during development (not shown).
If this is true, then we would expect that the behavioral rescue obtained by treating FS mutant flies these drugs during adulthood alone would lead to a similar morphological rescue. To test this hypothesis, we treated FS mutant flies with 8.6 mM MPEP for four days starting at eclosion, and then transferred them to normal food for 24 hours before examining the morphology of their MBs. For comparison we also examined the MBs of flies left in control food for five days. […] Thus it appears that rescue of this morphological defect is not absolutely necessary for the rescue of the memory defects observed in the dfmr1 mutant flies.

[1] = tested on: FS (dFMR1-3+frame shifted rescue fragment) flies; assay: Conditioned courtship: short-term memory at 60 minutes, virgin female target, FS flies; format: in vivo, Drosophila melanogaster; conditions: for short-term memory: concentration not given; for short term memory: LY341495 (400 nM), MPEP (20 μg/ml); for short-term memory at 60 minutes after training: adulthood alone or both
Protocol: (§1) Short-term memory. The model was further extended to encompass short-term memory at 60 minutes after training. After the one hour training session with a previously mated female, the female is removed and the male is placed in a holding chamber for 60 minutes, then subsequently placed in a testing chamber with a virgin female target to assess short-term memory (FIG. 4C). […] CT-CT FS flies court just as vigorously at 60 minutes after training as naive CT-CT FS flies. […] The FS groups that were treated with MPEP in development alone, adulthood alone or in both development and adulthood display experience dependent reduction of courtship activity at 60 minutes after training when compared to group matched naives M-M FS, p<0.0001, CT-M FS, p<0.0001 and M-CT FS, p<0.0001. […] Additionally, flies were tested for ability to discriminate between virgin and previously mated females (FIG. 4D).
(§2) In order to examine short-term memory at 60 minutes after training, after the one hour training session with a previously mated female, the female is removed and the male is placed in a holding chamber for 60 minutes, then subsequently placed in a testing chamber with a virgin female (FIG. 9B). […] CT-CT FS flies court just as vigorously at 60 minutes after training as naive CT-CT FS flies. […] The FS groups that were treated with MPEP in development alone, adulthood alone or in both development and adulthood display experience dependent reduction of courtship activity at 60 minutes after training when compared to group matched naives M-M FS.

[2] = tested on: wild type human and Drosophila tau expressing flies; assay: Short term memory in tau over expressing Drosophila Alzheimer's model; format: in vivo; conditions: for age dependent short term memory deficit: at 30 and 40 days
Excerpt: Two Drosophila Alzheimer's models are particularly useful. One uses over expression of tau (either human wild type or Drosophila wild type with a myc tag) driven in the mushroom bodies. Flies overexpressing tau have normal memory at 5 days of age (young adults) but an age dependent impairment of short-term and long term memory by 26 days of age.

[3] = tested on: Rescue (dFMR1-3+wild type rescue fragment) flies; assay: Conditioned courtship: short-term memory at 60 minutes, virgin female target, Rescue flies; format: in vivo, Drosophila melanogaster; conditions: for short term memory: MPEP (20 μg/ml), NaCl (5 and 50 mM), LY341495 (400 nM); for short-term memory at 60 minutes after training: adulthood or both
Protocol: as §1, §2

[4] = raised in food containing 8.6 mM MPEP, 400 nM LY341495 or 350 mM MTPG, 0-2 day old adults

Structure (SMILES) | short-term memory, mated female target (Rescue flies) | memory at 60 minutes post training, mated female target (Rescue flies) | FS mutant brains with (mild) fusion defects (FS mutant flies; raised in food containing 400 nM LY341495, untreated roughly 70%) | β-lobe fusion defects (FS mutant flies; [4]) | short-term memory ([1]; 20-day-old) | short term memory ([1]; 5 day old) | age dependent short term memory deficit [2] | short term memory ([2]; treatment from day 30 to day 39, at 40 days of age) | short term memory ([3]; 5 day old) | β-lobe fusion defects (FS mutant flies; 8.6 mM MPEP for four days starting at eclosion (adulthood only)) | short-term memory at 60 minutes after training ([1]; 20-day-old, MPEP in development alone) | short-term memory at 60 minutes after training ([1]; 5 day old, MPEP 200 μg/ml in development alone, p<0.0001) | short-term memory at 60 minutes after training ([3]; 20-day-old, MPEP in development) | short-term memory at 60 minutes after training ([3]; 5 day old, MPEP 200 μg/ml in development)
N[C@](CC1c2ccccc2Oc2ccccc21)(C(=O)O)[C@H]1C[C@@H]1C(=O)O [LY341495, (2S)-2-amino-2-[(1S,2S)-2-carboxycycloprop-1-yl]-3-(xanth-9-yl) propionic acid] | demonstrated intact short-term memory | demonstrate memory at 60 minutes post training | 18% | rescue of the β-lobe fusion defects | rescue short-term memory | restored short-term memory | can rescue the age dependent short term memory deficit | can restore short term memory | did not affect short term memory |  |  |  |  | 
CC(N)(C(=O)O)c1ccc(-c2nnn[nH]2)cc1 (racemic) [MTPG, (RS)-α-methyl-4-tetrazolylphenylglycine] | demonstrated intact short-term memory | demonstrate memory at 60 minutes post training |  | rescue of the β-lobe fusion defects | rescue short-term memory |  |  |  |  |  |  |  |  | 
Cc1cccc(C#Cc2ccccc2)n1 [MPEP, 2-methyl-6-(phenylethynyl)pyridine] | demonstrated intact short-term memory | demonstrate memory at 60 minutes post training |  | rescue of the β-lobe fusion defects |  | restored short-term memory | can rescue the age dependent short term memory deficit |  | did not affect short term memory | did not observe any rescue of the β-lobe fusion defects | short-term memory is also rescued | short-term memory is also rescued | does not adversely affect short-term memory | does not adversely affect short-term memory
